Results published in patent US5650415A, “Quinoline compounds” (Sugen, Inc., priority 1995, dated 1997).
pIC50: −log10 of the molar value.

System: HER2
Assay: HER2 whole cell kinase ELISA (first HER2 column of Table 1)
Format: cell-based
Details: cell line not given
Excerpt: The following examples illustrates the ability of the exemplary compounds to inhibit receptor tyrosine kinases, such as HER2 and/or EGFR. The following target cells were used for cellular kinase assays: NIH3T3 clone C7 (Honegger et al., supra) engineered to over-express human EGF receptor; NIH3T3 cells engineered to over-express a chimeric receptor containing the EGFR extracellular domain and the HER2 intracellular kinase domain; the human mammary carcinoma line BT474 (ATCC HTB2) expressing HER2; and the human glioblastoma line U1242 that expresses PDGFR-beta. Growth assays were carried out using human mammary epithelial SKBR3 (ATCC HTB30) cells (SKBR3 cells over-express HER2), SKOV3 (AT(D(D HTB77) human ovarian cancer cell line (SKOV3 cells also over-express HER2), A431 cells (A431 cells over-express EGFR) MCF7 human breast carcinoma cells, MCF7 cells overexpressing the HER2 kinase (MCF7-HER2), NIH3T3 cells, and NIH3T3 cells overexpressing the HER2 kinase (3T3-HER2.
EGFR-HER2 Chimeric Recetor
HER2 kinase activity (EGFR-3T3) in whole cells was measured as described below:
The materials and regeants are identical to these used in example 1, the EGFR whole cell kinase assay.
A. Coat ELISA plates (Corning, 96 well, Cat. #25805-96) with 05-101 antibody at 0.5 µg per well in PBS, 100 μl final volume/well, and store overnight at 4.sunburst. C. Coated plates are good for up to 10 days when stored at 4° C.
B. On day of use, remove coating buffer and replace with 100 μl blocking buffer (5% Carnation Instant Non-Fat Dry Milk in PBS). Incubate the plate, shaking, at room temperature (about 23.sunburst. C. to 25.sunburst. C.) for 30 minutes. Just prior to use, remove blocking buffer and wash plate 4 times with TBST buffer.
A. An NIH3T3 cell line overexpressing a chimeric receptor containing the EGFR extracellular domain and extracellular HER2 kinase domain can be used for this assay.
B. Choose dishes having 80-90% confluence for the experiment. Trypsinize cells and stop reaction by adding 10% fetal bovine serum. Suspend cells in DMEM medium (10% CS DMEM medium) and centrifuge once at 1500 rpm, at room temperature for 5 minutes.
C. Resuspend cells in seeding medium (DMEM, 0.5% bovine serum), and count the cells using trypan blue. Viability above 90% is acceptable. Seed cells in DMEM medium (0.5% bovine serum) at a density of 10,000 cells per well, 100 μl per well, in a 96 well microtiter plate. Incubate seeded cells in 5% CO2 at 37.sunburst. C. for about 40 hours.
A. Check seeded cells for contamination using an inverted microscope. Dilute drug stock (10 mg/ml in DMSO) 1:10 in DMEM medium, then transfer 5 l to a […] well for a final drug dilution of 1:200 and a final DMSO concentration of 1%. Control wells receive DMSO alone. Incubate in 5% CO2 at 37° C. for two hours.
B. Prepare EGF ligand: dilute stock EGF in DMEM so that upon transfer of 10 μl dilute EGF (1:12 dilution), 100 nM final concentration is attained.
D. After 120 minutes incubation with drug, add prepared […] ligand to cells, 10 μl per well, to a final concentration of 100 nM. Control wells receive DMEM alone. Incubate, shaking, at room temperature, for 5 minutes.
E. Remove drug, EGF, and DMEM. Wash cells twice with PBS. Transfer HNTG* to cells, 100 μl per well. Place on ice for 5 minutes. Meanwhile, remove blocking buffer from other ELISA plate and wash with TBST as described above.
F. With a pipette tip securely fitted to a micropipettor, scrape cells from plate and homogenize cell material by repeatedly aspirating and dispensing the HNTG* lysis buffer. Transfer lysate to a coated, blocked, and washed ELISA plate. Incubate shaking at room temperature for one hour.
G. Remove lysate and wash 4 times with TBST. Transfer freshly diluted anti-Ptyr antibody to ELISA plate at 100 μl per well. Incubate shaking at room temperature for 30 minutes in the presence of the anti-Ptyr antiserum (1:3000 dilution in TBST).
H. Remove the anti-Ptyr antibody and wash 4 times with TBST. […]

Structure (SMILES)	pIC50
CCOC(=O)c1cnc2ccc(C(F)(F)F)cc2c1Nc1ccc(C#N)cc1 [Compound A725, 4-(4-Cyanophenylamino)-3-ethoxycarbonyl-6-trifluoromethylquinoline]	< 4.00
CCOC(=O)c1cnc2ccc(C(F)(F)F)cc2c1Nc1ccc(OC)c(OC)c1 [Compound A726, 3-Ethoxycarbonyl-4-(3,4-dimethoxyphenylamino)-6-trifluoromethylquinoline]	< 4.00
CCOC(=O)c1cnc2ccc(C(F)(F)F)cc2c1NCc1cccc(C(F)(F)F)c1 [Compound A718, 3-Ethoxycarbonyl-4-(3-trifluoromethylbenzylamino)-6-trifluoromethylquinoline]	< 4.00
CCOC(=O)c1cnc2ccc(C(F)(F)F)cc2c1NCc1ccccc1C(F)(F)F [Compound A717, 3-Ethoxycarbonyl-4-(2-trifluoromethylbenzylamino)-6-trifluoromethylquinoline]	< 4.00
CCOC(=O)c1cnc2ccc(C(F)(F)F)cc2c1Nc1ccc(Br)cc1 [Compound A727, 4-(4-Bromophenylamino)-3-ethoxycarbonyl-6-trifluoromethylquinoline]	< 4.00
CCOC(=O)c1cnc2ccc(C(F)(F)F)cc2c1Nc1ccccc1C(F)(F)F [Compound A720, 3-Ethoxycarbonyl-4-(2-trifluoromethylphenylamino)-6-trifluoromethylquinoline]	< 4.00
CCOC(=O)c1cnc2c(F)ccc(F)c2c1Sc1cccc(C(F)(F)F)c1 [Compound A713, 3-Ethoxycarbonyl-5,8-difluoro-4-(3-trifluoromethylphenylmercapto)quinoline]	5.10
CCOC(=O)c1cnc2ccc(C(F)(F)F)cc2c1NCc1ccc(C(F)(F)F)cc1 [Compound A719, 3-Ethoxycarbonyl-4-(4-trifluoromethylbenzylamino)-6-trifluoromethylquinoline]	< 4.00
CCOC(=O)c1cnc2ccc(C(F)(F)F)cc2c1Nc1ccccc1C#N [Compound A723, 4-(2-Cyanophenylamino)-3-ethoxycarbonyl-6-trifluoromethylquinoline]	< 4.00

More lines, now with the values ahead:

pIC50	Structure (SMILES)
< 4.00	CCOC(=O)c1cnc2ccc(C(F)(F)F)cc2c1Nc1cccc(Cl)c1 [Compound A728, 4-(3-Chlorophenylamino)-3-ethoxycarbonyl-6-trifluoromethylquinoline]
< 4.00	CCOC(=O)c1cnc2c(F)cc(F)cc2c1Sc1ccc(Cl)cc1 [Compound A730, 4-(4-Chlorophenylmercapto)-6,8-difluoro-3-ethoxycarbonylquinoline]
< 4.00	CCOC(=O)c1cnc2cc(Cl)c(F)cc2c1Sc1ccc(Cl)cc1 [Compound A731, 7-Chloro-4-(4-chlorophenylmercapto)-6-fluoro-3-ethoxycarbonylquinoline]
4.30	CCOC(=O)c1cnc2c(F)ccc(F)c2c1Sc1ccc(Cl)cc1 [Compound A732, 4-(4-Chlorophenylmercapto)-5,8-difluoro-3-ethoxycarbonylquinoline]
< 4.00	CCOC(=O)c1cnc2ccc(C(F)(F)F)cc2c1Nc1ccc(Cl)cc1 [Compound A729, 4-(4-Chlorophenylamino)-3-ethoxycarbonyl-6-trifluoromethylquinoline]
